# Assay results from patent US20140099354A1, “BIOPASSIVATING MEMBRANE STABILIZATION BY MEANS OF NITROCARBOXYLIC ACID-CONTAINING PHOSPHOLIPIDS IN PREPARATIONS AND COATINGS” (priority 2011, published 2014).
# Experiments:
# [1] = tested on: human umbilical venous endothelial cells (HUVEC); assay: Endothelial cell homing on coated cobalt-chromium metal grids; format: cell-based; conditions: days 3, 7 and 14
# Procedure: To investigate the cell homing of endothelial cells onto phospholipid-coated artificial surfaces, metal grids with a cobalt-chromium alloy such as has been described in example 2 were coated. Coatings were performed with nitro-carboxylic acid-containing phosphatidylcholine according to the examples N2-N6 and O6. These were special product mixtures of different esterified 1,2-di(nitro linoleoyl)-sn-glycero-3-phosphatidylcholines (N2), from different esterified 1,2-di(nitro arachidonoyl)-sn-glycero-3-phosphatidylcholines (N3), from different esterified 1,2-di(nitroarachidonoyl)-sn-glycero-3-phosphatidylcholines (N4), different esterified 1,2-di(nitro-γ-linolenoyl)-sn-glycero-3-phosphatidylcholines (N5) or different esterified 1,2-di(nitro-DHA)-sn-glycero-3-phosphatidylcholines (N6) and mixture of 1-palmitoyl-2-(10-hydroxy-9-nitro-α-linolenoyl)-sn-3-glycero-phosphocholine and 1-palmitoyl-2-(9-hydroxy-10-nitro-α-linolenoyl)-sn-3-glycero-phosphocholine (06). Uncoated metal grids served as controls. The grids were placed in a culture dish containing a gel matrix on which human umbilical venous endothelial cells (HUVEC) were grown to confluence. The culture media consisted of 5% FCS, and was changed every second day. Cultivation was performed according to standard procedures. The culture dishes were carefully washed superficially several times after 3, 7, and 14 days with saline. […]
# ovarian tissue strips [2] = assay: Cryopreservation of ovarian tissue strips: intact follicles; conditions: liquid nitrogen 14 days, cultured 14 days
# sciatic nerve = assay: Viability of cryopreserved nerve grafts (Annexin-V staining, FACS); format: cell-based, rats; conditions: 100 mmolar solution 1 hour; −30° C. 72 hours
# [3] = Abrasion stability and traction work load of coated balloon catheters; format: physicochemical
# Procedure: Balloon catheters were coated by means of the Langmuir-Schaefer procedure where the balloon segment was aligned longitudinally and coaxial to the solution surface, dipping into the liquid for approx. 1 mm over the entire length. Then the catheter was slowly rotated around its axis 5 times. Phospholipids were dissolved at a concentration of 3 mmol in an ion-free aqueous solution at 50° C. The solution was cooled and given to the coating solution then. In case of incomplete dissolution of the phospholipids or if they separated when cooled, DMSO was added at a concentration of up to 20 vol.-%, preferably up to 10 vol.-%. After coating, the catheters were vacuum dried for 8 hours in order to remove residual solvent.
# The tubing was filled with a 10% human albumin solution at a temperature of 35° C. The cable system, which had previously been brought through the tubing was connected to the catheter tip and tracked outside the tubing by reversing pulleys, which allowed exactly vertically traction of the cable that was connected to a motorized winch. The winch was mounted on a digital precision balance. The catheters mounted in this manner were pulled through the tubing system and the weight changes measured by the balance, which represented the traction work load achieved for the passage of the catheter, was recorded continuously. These readings were integrated over time. The resultant values allow estimation of the total shear force that occurred during the passage of the catheter through the tubing system.
# The abrasion or loss of coating layers was determined by weighing the catheter before and after coating as well as after the mechanical stability test in the tubing system as described above using a high precision balance.
# Human red blood cells = assay: Erythrocyte membrane stability (osmotic, mechanical, storage); format: cell-based; conditions: 30 mmol/l, incubated for an hour
# Procedure: The physico-chemical properties of cell membranes determine their strength of resistance to physical, chemical and immunological alterations. Human red blood cells and mast cells from mice dissolved in solutions of physiological NaCl containing the natural phospholipids SOPC and PLPC or the analogue nitrated phospholipids (1-stearoyl-2-(9-nitrooleoyl)-sn-PC (example P14) and 1-palmitoyl-2-(9-nitrolinoleoyl)-sn-PC) (example P7) at a concentration of 30 mmol/l were incubated for an hour in order to assess the effects of an up-take of phospholipids into the cell membranes with respect to resistance to external alterations. Similarly, cells incubated with mixtures of nitro-carboxylic acid (s)-containing phospholipids according to examples N2-N14, F, Q, S, O3-O6, P1-P3 and P6 were investigated.
# For assessment of osmotic stability, cells were separated from serum by centrifugation first and then cleaned three times with physiological NaCl solution. […] After incubation for 30 minutes under the above described conditions, the tubes were centrifuged and an aliquot was taken for photometric measurement of hemoglobin by absorbance at a wavelength of 546 nm at a temperature of 30° C.
# For the examinations of mechanical stability, erythrocytes were prepared according to the procedure above. […] Then, the samples were centrifuged and supernatants were analyzed as stated above. […]
# [4] = Tissue response to coated silicone implants in vivo after bleomycin; set-up: species or system Wistar rats; conditions: silicone cushions, subcutaneous, 7 to 90 days
# TRPV1, 2 and 4, TRPA1 = assay: Inducible ion current of TRP receptors in Xenopus oocytes (voltage clamp); format: cell-based, rat; conditions: 50 mmol/l, 10 and 60 minutes
# Procedure: An established in-vitro model of Xenopus oocytes (Dascal N, 1987 The use of Xenopus oocytes. CRC critical reviews in biochemistry 22, 317-387) was used to study the influence of incubation with PL on ion channels regulated by membrane receptors. Defolliculized oocytes were transfected with cRNA (rat) of TRPV1, 2 and 4, as well as of TRPA1, stored in tissue culture plates and incubated in culture medium (ND 96) at 15° C. under constant motion in the incubator for 7 to 10 days.
# Induced leakage currents through activation of the TRP receptors was determined by means of double electrode voltage-clamp technique (Ahern G P, Brooks I M, Miyares R L &Wang X B, 2005, Extracellular cations sensitize and gate capsaicin receptor TRPV1 modulating pain signalling. J Neurosci 25, 5109-5116). Ooocytes were probed with borosilicate glass capillaries (Clark) and connected to a feedback amplifier (Gene clamp Amplifier, Axon instruments). The membrane potential of oocytes was clamped to −60 or −90 mV. The presence of a directive […] current was compared to non-transfected controls. The investigations were performed in a miniature organ bath in calcium-free buffered (Hepes, pH 7.3) NaCl solution. The TRPV1 receptor excitation was initiated by rapidly changing of the bath solution against a capsaicin solution (10 μmol). Results of non-pretreated oocytes were used for normative comparison of subsequent measurements of incubatesd cells. Investigations with incubated cells were carried out in the same way for oocytes transfected with the TRPV2, and TRPV4 and TRPA1 receptors, wherein the receptor agonists cannabidiol (10 μmol) and 4α-PDD (4α-phorbol 12,13-didecanoate, 50 μmol) and innamaldehyde (50 μmol) were used instead of capsaicin.
# [5] = biological target: Glycophorin A (GpA) peptides (Homo sapiens, UniProt P02724); conditions: 10-50% (mol/mol) admixed to DSPC vesicles; versus native phospholipids
# Procedure: The change of the Frster resonance energy transfer (FRET) of fluorescence-labelled peptides with α helical trans-membrane structure in a double lipid layer can be used for determination of the concentration of monomeric and dimeric trans-membrane helices and for quantitative determination of helix-helix interactions.
# FRET measurements were carried out with fluorescence-marked Glycophorin A (GpA) peptides. The transmembrane GpA forms dimers, whereby the energy transfer can be measured. 5-carboxyfluorescein and tetramethyl-6-carboxyrhodamine were used as chromophores.
# Degree of dimerization of the model protein was measured in a direct comparison between native phospholipids and the corresponding phospholipids with a nitrated alkyl chain for the given concentrations of phospholipids (10-50%, mol/mol) admixed to the DSPC vesicles.
# For determination of the dimerization, the peptides of FL GpAwt and TAMRA GpAwt were weighed and dissolved in TFE. The measurements were carried out on a fluorescence spectrometer of type Aminco Bowman series 2 (Thermo Spectronic).
# [6] = tested on: Cardiac muscle cells derived from neonatal rat heart; assay: Hypoxia of cardiac muscle cells (viability, mitochondrial NAD+); format: cell-based; conditions: for mitochondrial NAD+ content: hypoxia, baseline 5
# Procedure: Cardiac muscle cells derived from neonatal rat heart (Nitobe J, et al, Reactive oxygene species regulate FLICE inhibitory protein and susceptibility to FAS-mediated apoptosis in cardiac myocytes. Cardiovasc RES 2003, 119-28). The heart muscle cells were cultured in Dulbecco/Eagle medium (DMEM) with 10% FCS added under standard conditions for two days. Incubation with the natural and nitrated phospholipids, as well as the hypoxia experiments were carried out as described above. Incubated cells were grown in culture medium under standard conditions for 24 hours. This is followed by a vitality staining as described above. […] The frozen cells were thawed up to -4° C. and homogenized for subsequent NAD^+ analyses. By means of differential centrifuge, pellets containing mitochondria were separated (Di Lisa, et al, 1993; Am. J. Physiol. 264, […]-[…]). The NAD^+ content was determined by fluoroscopy, and normalized to the protein content (Veloso, D., and […]., 1974;) Anal. Biochem., 449-450).
# ovarian tissue strips [7] = assay: Cryopreservation of ovarian tissue strips: 17 β-estradiol and progesterone (radio-immuno assay); format: cell-based, sheep; conditions: after cryopreservation and culture
# Procedure: Ovar ectomy was performed in female sheep; resected tissues were cut into 60 ovarian tissue strips. The ovarian strips were either cultured directly (n=4) or prepared with a usual solution for vitrification (VS group; Vitrification Kit, Sage, USA) or incubated with nitrated PLs (NPL group). For this purpose, the tissue strips were bathed in an equibrilation solution (ART-8025-A) which consisted of MOPS-buffered amino acids and gentamicin sulfate (10 mg/l), and 7.5% (v/v) of each DMSO and ethylene glycol and 12 mg/ml human serum albumin for 30 minutes. Thereafter the strips of the VS group were placed in the vitrification solution (ART-8025-B), which is a MOPS-buffered solution containing amino acids and gentamicin sulfate, that contain 15% (v/v) each DMSO and ethylenglycol, 12 mg/ml human albumin and 0.6 M sucrose. The strips of the NPL group were placed in a solution containing 25% (v/v) nitrated PL SNOPC or PNLPC in a PBS-buffered 1% DMSO solution containing 5% human albumin for 60 minutes. The treated tissue strips were then immersed into liquid nitrogen and kept here for 14 days. Then removal and warming of the tissue pieces was performed in AIM-V medium (Gibco, Invitrogen) in a sterile culture dish, first up to 5° C. within 20 minutes, then heated further in a water bath up to 37° C., within the following 60 minutes. The culture medium was replaced and specimens cultured for 14 days. After this, the tissue pieces were fixed, embedded in paraffin and cut, followed by histological examination. […] The total number of intact follicles in the control group was taken as a reference to the number of follicles in the cryopreserved groups.
# The culture medium has been exchanged by every 2nd day; samples for hormone analysis were taken and frozen at that time. Determination of 17 β-estradiol and progesterone were performed with a radio-immuno assay (diagnostic systems laboratories, USA).
# cortical neurons = assay: Hypoxia and reperfusion of cortical neurons (viability, LDH)
# Procedure: To determine whether the membrane-stabilizing properties of nitrated phospholipids can lead to attenuation of effects due to an ischemic event or the re-perfusion damage, cortical neurons and cardiac myocytes were investigated.
# Freshly prepared cortex tissue was separated with Papain and tissue suspensions were cultured in culture vessels (Prim ARA; BD Biosciences, USA) with Neurobasal A/B27 medium (Invitrogen) for 10-12 days. Cell suspensions were divided, and replenished with suspensions of the natural phospholipids SOPC and PLPC, as well as the analogue phospholipids with nitration of unsaturated fatty acids (1-stearoyl-2-(9-nitrooleoyl)-sn-PC and 1-palmitoyl-2-(9-nitrolinoleoyl)-sn-PC) at concentrations of 10 to 50 μmol/l in NaCl (0.9%) were added. […] After 4 hours, the cells were washed three times with buffered saline and buffered NaCl solution with the addition of MgCl2 and CaCl2 in an anaerobic atmosphere (85% N2, 5% O2, 10% CO2; at 35° C.) for 10 and 30 minutes. Then, the cells were washed once and grown in culture medium under aerobic conditions for 24 hours. […] Cells were stained with annexin V-FITC and propidium iodide (Molecular probes, USA). The vital and necrotic cells were measured by flow cytometry (FACSCalibur, Becton & Dickinson). The volume of culture medium was determined and an aliquot was taken for determination of the LDH (lactate dehydrogenase) concentration.
# [8] = tested on: Heart muscle cells from rabbit hearts; assay: Cytosolic Ca2+ concentration in heart muscle cells (fluo-4 fluorescence); format: cell-based
# Procedure: Heart muscle cells were taken from rabbit hearts according to a method described elsewhere (Shannon T R, Ginsburg K S, Bers D M. Quantitative assessment of the SRCa^2+ leak-load relationship. Circ Res. 2002; 91:594-600). The prepared cells were cultured for 72 hours.
# The cytosolic Ca^2+ concentrations were determined with fluo-4 fluorescence. Therefore the cells were incubated with 10 μmol fluo-4 AM (1%) for 30 minutes and washed thereafter three times with PBS. The cells were stimulated in a Tryode solution on a platinum electrode with a frequency of 0.5 Hz over 20 cycles. Then the ambient medium was changed and an electrolyte-free colloidal solution was added. Determination of the Ca concentration was performed after each series of stimulation over 20 cycles. Calcium content was estimated by the use of confocal laser scanning microscopy (Olympus). At least 10 cells per experiment were evaluated in a post-systolic interval of 1000 ms. The measurements were repeated at least three times. β-adrenergic stimulation was performed with 250 nmol/L isoproterenol, which was given to the medium.
# [9] = tested on: Murine macrophages (RAW 264.7)
# Text: The survival rate and cytokine production of adhering macrophages were examined to evaluate the bio-passivating properties of various nitro-carboxylic acid containing phospholipids.
# Templates made of glass were coated with nitro-carboxylic acid-containing and native phosphatidylcholines and with an admixture of 50% phosphatidylcholine and phosphatidyletholamine, as described in example 2. […] The glass slides were placed in Teflon bowl, uncoated slides served as control. Murine macrophages (RAW 264.7) were cultured to a cell density of 5×10^5. Cell suspensions were added to the culture dishes, so that macrophages could attach on the slides under standard culture conditions for 24 to 48 hours. […] The cell survival rate was investigated using an MTT assay.
# Glycophorin A (GpA) peptides, sequence (P02724 92-114 limits assumed, species assumed): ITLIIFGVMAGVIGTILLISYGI
compound,measurement,setting,value
"1,2-di-(nitro-DHA)-sn-glycero-3-phosphatidylcholines [Example N6]",endothelial cell coverage and growth on coated struts,[1],slight tendency for a stronger growth of cells
same,rate of intact follicles relative to the control group,ovarian tissue strips [2],92%
same,proportion of living cells relative to non-frozen control,sciatic nerve,72%
"1,2-di-(nitrolinoleoyl)-sn-glycero-3-phosphatidylcholines [Example N2]",endothelial cell coverage and growth on coated struts,[1],slight tendency for a stronger growth of cells
same,rate of intact follicles relative to the control group,ovarian tissue strips [2],94%
same,proportion of living cells relative to non-frozen control,sciatic nerve,79%
"CCCCCCCCC=C(CCCCCCCC(=O)OC[C@H](COP(=O)(O)OC1C(O)C(O)C(O)C(O)C1O)OC(=O)CCCCCCCC(=CCCCCCCCC)[N+](=O)[O-])[N+](=O)[O-] (stereo partly shown) [Example F, 1,2-di-(9-nitrooleoyl)-sn-3-glycerophosphatidylinositol]",proportion of living cells relative to non-frozen control,sciatic nerve,88%
same,mechanical removal of coating substance and workload to pull the catheter through PTFE tubing,[3],Very similar results
same,erythrocyte membrane stability,Human red blood cells,very similar values as the nitrated phosphocholines
same,biocompatibility of coated implants compared to natural PLs,[4],improved biocompatibility of implants several-fold
same,inducible membrane channel activity of TRP channels,"TRPV1, 2 and 4, TRPA1",significant decrease of inducible membrane channel activity
"CCCCC/C=C\C/C=C(\CCCCCCCC(=O)O[C@H](COC(=O)CCCCCCCCCCCCCCCCC)COP(=O)([O-])OCC[N+](C)(C)C)[N+](=O)[O-] [Example P13, 1-stearoyl-2-(E-9-nitrolinoleoyl)-sn-3-glycerophosphocholine]",degree of dimerization of the model membrane protein,[5],significantly greater reduction of dimerization
"CCCCCCCC/C=C(\CCCCCCCC(=O)O[C@H](COC(=O)CCCCCCCCCCCCCCCCC)COP(=O)([O-])OCC[N+](C)(C)C)[N+](=O)[O-] [Example P14, 1-stearoyl-2-(E-9-nitrooleoyl)-sn-3-glycerophosphocholine]",rate of intact follicles relative to the control group,ovarian tissue strips [2],96%
same,proportion of living cells relative to non-frozen control,sciatic nerve,86%
same,loss of viability of heart muscle cells after hypoxia,[6]; (10 minutes),6%
same,loss of viability of heart muscle cells after hypoxia,[6]; (30 minutes),16%
same,mitochondrial NAD+ content,[6]; first printed value,3.8 nmol/mg protein
same,mitochondrial NAD+ content,[6]; second printed value,3.3 nmol/mg protein
same,estradiol,ovarian tissue strips [7],8.6 ng/mL
same,progesterone,ovarian tissue strips [7],0.6 ng/mL
same,biocompatibility of coated implants compared to natural PLs,[4],improved biocompatibility of implants several-fold
same,increase in LDH versus normoxemia culture,cortical neurons; 10-minutes ischemia,120 fold
same,viability of cortical cells measured after 24 hours,cortical neurons; 10-minutes ischemia,68%
same,increase in LDH versus normoxemia culture,cortical neurons; 30-minutes ischemia,230 fold
same,viability of cortical cells measured after 24 hours,cortical neurons; 30-minutes ischemia,54%
same,end of diastole (ED) cytosolic calcium,[8]; after hypoxia,80 nmol/L
same,post systolic (PS) cytosolic calcium,[8]; after hypoxia,40 nmol
same,end of diastole (ED) cytosolic calcium,[8]; after hypoxia and stimulation with isoproterenol,90 nmol/L
same,end of diastole (ED) cytosolic calcium,[8]; normoxic conditions,30 nmol/L
same,post systolic (PS) cytosolic calcium,[8]; normoxic conditions,10 nmol
same,inducible membrane channel activity of TRP channels,"TRPV1, 2 and 4, TRPA1",significant decrease of inducible membrane channel activity
same,degree of dimerization of the model membrane protein,[5],significantly greater reduction of dimerization
"CCCCCCCC/C=C(\CCCCCCCC(=O)OC[C@H](COP(=O)([O-])OCC[N+](C)(C)C)OC(=O)CCCCCCCCCCCCCCC)[N+](=O)[O-] [Example Q, 1-(9-Nitrooleoyl)-2-(palmitoyl)-sn-3-glycero-phosphocholine]",rate of intact follicles relative to the control group,ovarian tissue strips [2],96%
same,proportion of living cells relative to non-frozen control,sciatic nerve,80%
same,mechanical removal of coating substance and workload to pull the catheter through PTFE tubing,[3],Very similar results
same,viability of adhering macrophages,[9],95-98%
"CCCCCCCC/C=C(\CCCCCCCC(=O)O[C@H](COC(=O)CCCCCCCCCCCCCCC)COP(=O)(O)OCCN)[N+](=O)[O-] [Example S, 1-Palmitoyl-2-(E-9-nitrooleoyl)-sn-3-glycero-phosphatidylethanolamine]",proportion of living cells relative to non-frozen control,sciatic nerve,85%
same,mechanical removal of coating substance and workload to pull the catheter through PTFE tubing,[3],Very similar results
same,erythrocyte membrane stability,Human red blood cells,very similar values as the nitrated phosphocholines
same,inducible membrane channel activity of TRP channels,"TRPV1, 2 and 4, TRPA1",significant decrease of inducible membrane channel activity
